According to patent publication US5283255A, “Wavelength-specific cytotoxic agents” (The University of British Columbia, priority 1992, dated 1994):
Several values for one entry are separate records, joined by “and”; a condition that tells them apart may be missing. Equal entries are not always repeated. Where two headings read alike, the source gives them in different places.

Legend:
skin = conditions: mouse, in vivo
Method: Mice bearing P815 tumors were shaved and injected with equivalent amounts of photosensitizer, and exposed to 72 Jo/cm^2 (80 mw/cm^2 -15 min-full spectrum) at various time intervals. Skin biopsies were taken at 24 and 48 hours after light irradiation and visual evaluations were made blind.

[1] = system: warts caused by Papilloma virus; experiment: Systemic administration, papilloma-caused warts in rabbits; format: in vivo, rabbit; conditions: of 12 warts, 2 mg/kg IV
Method: Rabbits displaying warts caused by Papilloma virus were provided according to the model described by Shope et al., J. Exp. Med, (1933) 58:607-624. Five rabbits were administered Photofrin® II porfimer sodium intravenously at 10 mg/kg total dose over a ≤5 minute period beginning 24 hours before irradiation treatment. Six rabbits were administered BPD-MA intravenously at 2 mg/kg total dose over a ≤5 minute period beginning 2.5-3.5 hours before irradiation treatment. Warts were irradiated individually with no light, 150 J/cm^2 or 250 J/cm^2 using 630 nm for porfimer sodium and 690 nm for BPD-MA.

M-1 rhabdomycoscercoma = experiment: In vivo photosensitization, M-1 rhabdomyosarcoma system in DBA/J2 mice
Method: Studies of potential photosensitizers were performed using the M-1 rhabdomycoscercoma system in DBA/J2 mice. The compositions to be tested were diluted to a concentration of […] in PBS from a stock solution in DMSO at 8 mg/ml (except Photofrin® II, which was diluted directly from the clinical vial). […]

P815 target cells = conditions: mouse, in vivo, iv
Method: (§4) To determine biodegradability, tritiated BPD-MA was injected IV into P815 tumor-bearing mice. The mice were sacrificed at either 3 or 24 hours following injection and tumors, livers and kidneys were removed. The BPD-MA in these tissues was extracted and photoactivity was assessed in P815 target cells as described above in Example 1 under standard in vitro conditions.

tumor cells = experiment: Alternate in vivo assay: kill of tumor cells from dosed mice (MTT); conditions: 180 min
colon adenocarcinoma [2] = experiment: Detection of tumors by fluorescence in rats; conditions: 3.5 mg/kg IV; 3 h
VSV = experiment: microbe, parasite or virus in culture; set-up: species or system Vesicular stomatitis virus; conditions: for log reduction at 1 µg/mL: read-out: virus kill, 1 μg/ml; for log reduction at 1000 µg/mL: read-out: virus kill, 1 mg/ml (so in the source)
in vivo = conditions: mouse, iv
Method: as §4

target cells = experiment: In vitro evaluation of BPD-DA, -MA, -DB and -MB (as in Example 1); format: cell-based
Method: For the "affinity" assay, in the dark, 100 μl of the target cell suspension and 100 μl of the test or control compound were mixed. "Labeling" was allowed to continue for one hour at 4° C., and labeled cells were washed in the dark three times with 3 ml medium each time and resuspended in fresh medium. The resuspended cells were then subjected to light exposure at 300-750 nanometers for 30 minutes.
In a "direct" assay the target cells were irradiated immediately upon addition of the test or control compound.
The effect of irradiation was estimated using methods appropriate to the target cells.
The four compounds shown in FIG. 2, wherein R^1 and R^2 are carbomethoxy, were tested in vitro as described in Example 1.

[3] = system: Human atherosclerotic iliofemoral arteries and aorta; experiment: In vitro human atherosclerotic tissue study, fluorescence microscopy
Method: Human atherosclerotic iliofemoral arteries and aorta were harvested and wrapped in saline-soaked gauze and then incubated for 2 hours at room temperature in MEM-Eagle's Medium and 10% fetal calf serum mixed with BPD-MA formulated at 30 μg/ml. The BPD was prepared by mixing 1 ml of BPD-MA stock solution with 8.1 ml MEM-Eagle's Medium and 0.9 ml fetal calf serum.
The sample was rinsed three times in cold normal saline, and the sections were examined by fluorescence microscopy to evaluate the uptake of BPD. The administered dose was finally diluted to provide solutions containing 0.5-200 μg/ml, and incubation time was varied.

atherosclerotic aortas = experiment: Rabbit studies of aorta, fluorescence microscopy; format: in vivo
Method: The rabbits were injected with BPD-MA at various dosages and time intervals prior to sacrifice. The rabbits were euthanized by injection and the entire descending aorta was removed, sectioned, and examined by fluorescence microscopy.

colon adenocarcinoma [4] = conditions: rat, in vivo
[5] = format: in vitro ADME, human
Method: (§1) Franz in vitro percutaneous diffusion chambers were used to conduct studies of BPD formulations with oleic acid and oleyl alcohol vehicles (^14 C-BPD having a specific activity of 6 μCi was used). Excised split thickness (200 μ) human cadaver skin was mounted on the chamber (surface area 3 cm^2). The lower reservoir contained 4% bovine serum albumen in isotonic buffered saline, pH 7.0.
(§2) The chambers with the skin were equilibrated to 37° C. prior to application of the drug formulations. Formulations ([…] containing 1.67 μCi) were applied to the epidermal surface of the skin. The chamber was covered (occluded) to prevent evaporation, and the experiment was conducted in the dark.
(§3) Six diffusion cells were run for each time point (1.5 hr, 3 hr, 24 hr) for each formulation. Samples were removed from the dermal chamber at 1.5 hr, 3 hr and 24 hr. Cumulative penetration was assayed by liquid scintillation.
At the end of the respective time point, the surface of the skin was washed to remove surface drug. A 4 mm full thickness skin punch biopsy was taken from each specimen and processed for frozen section tissue fluorescence. […] The stratum corneum was removed by 25 repetitive strippings with cellophane tape and counted in groups of five. […] These tissues were then digested and the ^14 C-BPD content of each of the skin compartments and reservoir was determined by liquid scintillation counting. […]

[6] = format: in vitro ADME; conditions: human
Method: as §1, §2, §3
At the end of the respective time point, the surface of the skin was washed to remove surface drug. A 4 mm full thickness skin punch biopsy was taken from each specimen and processed for frozen section tissue fluorescence. This necessitates termination of flux measurements in that chamber. The stratum corneum was removed by 25 repetitive strippings with cellophane tape and counted in groups of five. The epidermis was heat-separated from the dermis by heating to 60° C. for 1 minute. These tissues were then digested and the ^14 C-BPD content of each of the skin compartments and reservoir was determined by liquid scintillation counting. (In the tables, "BPD-OA" and "BPD-OL" represent the BPD-oleic acid and BPD-oleyl alcohol formulations of the preceding example, "CH-014" represents ^14 C-labeled BPD-MA, and "phospholipid" represents a BPD-MA liposomal formulation.)

C=Cc1c(C)c2cc3nc(cc4[nH]c(cc5nc(cc1[nH]2)C(C)=C5CCC(=O)O)c(CCC(=O)OC)c4C)C1(C)C3=CC=C(C(=O)OC)C1C(=O)OC (stereo not drawn) [BPD-MA]
skin photosensitizing activity (skin): major photosensitizing activity
time dependence of skin photosensitizing activity (skin): only present when light treatment was given 3 hours post drug administration
warts completely regressed ([1]; 150 J/cm^2, 690 nm): 7
warts showing >50% regression ([1]; 150 J/cm^2, 690 nm): 5
warts showing complete cure ([1]; 250 J/cm^2, 690 nm): 12
Number of Days Tumor Free (PR) (M-1 rhabdomycoscercoma; Table 6, 567 Jo/cm^2, IV 24 h before light): 9.2 days
Cures (tumor regressed and tumor-free for 30 days) (M-1 rhabdomycoscercoma; Table 6, 567 Jo/cm^2, 8 animals per group): 4
Days Tumor-free (M-1 rhabdomycoscercoma; Table 7, light dose 378 To/cm^3): 13.2 days
Number of Cures (M-1 rhabdomycoscercoma; Table 7, light dose 378 To/cm^3, 9-15 animals): 4
degradation in liver and kidney compared with tumor tissue (P815 target cells): both the liver and kidney degraded BPD more rapidly than did tumor tissue
% Kill (tumor cells; 33 μg/mouse IV, light dose 5.7 Jo): 22.0%
% Kill (tumor cells; 40 μg/mouse IV, light dose 3.8 Jo): 32.5%
% Kill (tumor cells; 80 μg/mouse IV, light dose 3.8 Jo): 63.5 ± 2.1% and 53.7 ± 6.2%
ratio of tumor exterior to muscle compared with HP (colon adenocarcinoma [2]): approximately the same as that for HP
relationship between total light energy and drug dose required to inactivate VSV (VSV; 1, 2 and 4 μg/ml, 1 ml samples, 2 h before light): inverse relationship between total light energy and the drug dose required to inactivate the VSV
virus inactivation (VSV; 2 and 4 μg/ml, 2 h dark incubation, 57.6 J/cm^2, 1 and 2 ml samples): complete virus inactivation
effect of increasing incubation time on VSV inactivation (VSV; 0.5 hour to 1 hour, 1 μg/ml, 57.6 J/cm^2): improved VSV inactivation
log reduction at 2 µg/mL (VSV; Vesicular stomatitis virus, light or radiation study, 2 h, read-out: viral kill, 2 μg/ml, 1 ml, 2 h, 57.6 J/cm^2): 7
log reduction at 1 µg/mL (VSV; Vesicular stomatitis virus, light or radiation study, 2 h, 28.8 J/cm^2): 2
log reduction at 1 µg/mL (VSV; Vesicular stomatitis virus, light or radiation study, 2 h, 57.6 J/cm^2): 5
log reduction at 1000 µg/mL (VSV; Vesicular stomatitis virus, light or radiation study, 1 ml sample, 57.6 J/cm^2): 4
log reduction at 1000 µg/mL (VSV; Vesicular stomatitis virus, light or radiation study, 2 ml sample, 57.6 J/cm^2): 2
effect of incubation temperature (VSV; room temperature, 37° C. or 4° C.): little difference
effect of further increasing incubation time on VSV inactivation (VSV; to 2-3 hours, 1 μg/ml, 57.6 J/cm^2): little effect
remaining at 3 h (in vivo): 100%
remaining at 24 h (in vivo): 39%
in vitro photosensitivity (target cells): somewhat more active
fluorescence for detection of plaques ([3]; 10 μg/ml or less): did not provide sufficient fluorescence to detect the presence of plaques
fluorescence for detection of plaques ([3]; 100 μg/ml and above): fluorescence was clearly seen
fluorescence in plaqued areas ([3]; approximately 25 μg/ml): showed most intensely in the plaqued areas
fluorescence in underlying arterial wall ([3]; approximately 25 μg/ml): no fluorescence was seen in the underlying arterial wall
fluorescence in aorta tissue samples (atherosclerotic aortas; 30 μg/kg): No fluorescence was seen
fluorescence in normal aorta samples (atherosclerotic aortas; 100 μg/kg): no fluorescence was shown in the normal aorta samples
fluorescence in atherosclerotic samples (atherosclerotic aortas; 100 μg/kg, two samples): fluorescence was seen in the plaque but not the arterial wall
drug-related signal over malignant tumor (colon adenocarcinoma [4]): BPD-MA-related signal increases over the malignant tumor

C=Cc1c(C)c2cc3nc(cc4[nH]c(cc5nc(cc1[nH]2)C(C)=C5CCC(=O)O)c(CCC(=O)OC)c4C)C1(C)C3=CC=C(C(=O)OC)C1C(=O)OC (stereo not drawn) [CH-014]
TISSUE FLUORESCENCE, Dermis [5]: 1
PERCENT RECOVERY, Dermis ([6]; 90 min): .19 ± .06%
PERCENT RECOVERY, Epidermis ([6]; 90 min): .13 ± .13%
PERCENT RECOVERY, Reservoir ([6]; 90 min): 0%
PERCENT RECOVERY, Dermis ([6]; 180 min): .32 ± .11%
PERCENT RECOVERY, Epidermis ([6]; 180 min): .06 ± .02%
PERCENT RECOVERY, Reservoir ([6]; 180 min): 0%
PERCENT RECOVERY, Dermis ([6]; 1440 min): .40 ± .28%
PERCENT RECOVERY, Epidermis ([6]; 1440 min): .06 ± .03%
PERCENT RECOVERY, Reservoir ([6]; 1440 min): .014 ± .018%
